{"source": "patent US20020115721A1", "about": "“Esters of alkycarboxy amino acids as prodrugs of modulators of the kainate receptor” (Annovis, Inc., priority 2000, published 2002)", "key": {"Sprague-Dawley rats [1]": {"test_system": "Sprague-Dawley rats", "assay": "Rat allodynia/hyperalgesia pain model after capsaicin", "assay_type": "in vivo", "protocol": "This test is to determine the extent of protection by a test compound to neuropathic pain sensations. With the rat standing on an elevated perforated floor, mechano-allodynia is measured by applying from beneath a graded series of von Frey hairs to the mid-plantar region of the effected paws. The hair that evokes at least one withdrawal response is designated the threshold level when compared to the sham treated nerve. Alternatively, the paw can be illuminated with a noxious radiant heat and the time to paw withdrawal is measured.\nThe model is described by Bennett, Neuro. Report 5, 1438-1440 (1994), and references cited therein. He measures changes in withdrawal latency after chronic constriction injury; a rat is prepared by bilaterally exposing the sciatic nerves on both thighs. On one side, loosely fitting constrictive ligatures are tied around the nerve; the other side is sham manipulated but not ligated. The model can also be used to measure increases in sensitivity and decreases in latency after injection of an irritating or pain inducing substance such as capsaicin or carrageenan.\nA total of 40 adult male Sprague-Dawley rats, 250-300 g, were used. Baseline measures of withdrawal responses evoked by heat and mechanical stimuli were determined for each hind paw and obtained for at least 4 consecutive days until withdrawal and latency responses were stable. Four groups of 10 rats each were sorted to establish equivalent baseline mean responses to heat and mechanical stimuli. Each group was randomly assigned to 1 of 4 treatment conditions: vehicle, 10, 50, or 100 mg/kg compound i.p. On test day, withdrawal responses to heat and mechanical stimuli were measured before intraperitoneal injection of the treatment condition. […] Capsaicin (10 μl of 0.1%, intraplantar) was administered 30 minutes after i.p. injection. Withdrawal responses to heat and mechanical stimuli were again measured 5 and 30 minutes post capsaicin. The contralateral paw served as an internal control. The experimenter was blind to the treatment condition.\nThe prodrugs were tested in the allodynia model after inducing pain with capsaicin.\nA total of 24 adult male Sprague-Dawley rats, 250-300 g., were used and treated according to protocol described above using (2S,4R)-4-methyl glumatic acid methyl ester.\nA total of 33 adult male Sprague-Dawley rats, 250-300 g., were treated according to protocol described above using (2S,4R)-4-methyl glumatic acid ethyl ester. The concentrations of the compound were […]."}, "[2]": {"assay": "Prodrug hydrolysis to the acid form in plasma", "assay_type": "in vitro ADME", "from_the_text": "The ester bond in any of the disclosed prodrug compositions can be readily cleaved in vivo. Therefore, prodrug compositions of Formula I can be hydrolyzed to the corresponding acids form in plasma."}, "Sprague-Dawley rats [3]": {"test_system": "Sprague-Dawley rats", "assay": "Rat allodynia/hyperalgesia pain model after capsaicin", "assay_type": "in vivo", "details": "1 hour before capsaicin"}, "[4]": {"test_system": "AMPA receptor as compared to the kainate receptor", "details": "selectivity ratio; cited from earlier work"}, "[5]": {"molecular_target": "glycine site of the NMDA receptor (Homo sapiens, UniProt Q05586)", "details": "cited from earlier work"}, "[6]": {"details": "cited from earlier work"}}, "data": [{"smiles": "COC(=O)[C@H](N)C[C@H](C)C(=O)OC.Cl", "values": [{"measurement": "melting point", "value": "138 to 139", "unit": "°C"}]}, {"smiles": "CCOC(=O)[C@H](N)C[C@H](C)C(=O)OCC.Cl", "values": [{"measurement": "melting point", "value": "158 to 160", "unit": "°C"}]}, {"smiles": "C[C@H](C[C@H](N)C(=O)O)C(=O)O", "note": "[Compound 1, (2S,4R)-4-Methyl glutamic acid]", "values": [{"measurement": "blocking hyperalgesia to heat", "setting": "Sprague-Dawley rats [1]; 10, 50, 100 mg/kg i.p., capsaicin", "value": "effective"}, {"measurement": "blocking mechanical hyperalgesia", "setting": "Sprague-Dawley rats [1]; 10, 50, and 100 mg/kg i.p., capsaicin intraplantar 30 minutes after injection", "value": "effective"}, {"measurement": "mechanical hyperalgesia versus vehicle (p<0.05)", "setting": "Sprague-Dawley rats [1]; 5 minutes post capsaicin, all doses (10, 50, 100 mg/kg i.p.)", "value": "significantly different from vehicle"}, {"measurement": "hyperalgesia to heat versus vehicle", "setting": "Sprague-Dawley rats [1]; 30 minute time point", "value": "not significantly different from vehicle"}, {"measurement": "mechanical hyperalgesia versus vehicle (p<0.05)", "setting": "Sprague-Dawley rats [1]; 30 minutes post capsaicin, 100 mg/kg i.p. only", "value": "remained significantly different from vehicle"}, {"measurement": "hyperalgesia to heat versus vehicle (p<0.05)", "setting": "Sprague-Dawley rats [1]; all three doses (10, 50, 100 mg/kg i.p.), early time point", "value": "significantly different from vehicle"}]}, {"smiles": "COC(=O)[C@H](C)C[C@H](N)C(=O)OC.Cl", "note": "[Compound 2, (2S,4R)-4-Methyl Glutamic Acid Dimethyl Ester Hydrochloride]", "values": [{"measurement": "hyperalgesia to mechanical stimuli (p<0.05)", "setting": "Sprague-Dawley rats [1]; 10 mg/kg i.p., capsaicin", "value": "reduced"}, {"measurement": "hyperalgesia to radiant heat (p<0.05)", "setting": "Sprague-Dawley rats [1]; 10 mg/kg i.p., capsaicin", "value": "reduced"}, {"measurement": "hydrolysis to (2S,4R)-4-methyl glutamic acid (1)", "setting": "[2]", "value": "readily hydrolyzed"}, {"measurement": "melting point", "value": "138 to 139", "unit": "°C"}, {"measurement": "prevention of development of hyperalgesia", "setting": "Sprague-Dawley rats [3]; 0.1 mg/kg i.p.", "value": "no effect"}, {"measurement": "hyperalgesia prevention", "setting": "Sprague-Dawley rats [3]; 1 mg/kg i.p.", "value": "about 40%"}, {"measurement": "prevention of development of hyperalgesia", "setting": "Sprague-Dawley rats [3]; 10 and 50 mg/kg i.p.", "value": "totally prevented"}]}, {"smiles": "CCOC(=O)[C@H](C)C[C@H](N)C(=O)OCC.Cl", "note": "[Compound 3, (2S,4R)-4-Methyl Glutamic Acid Diethyl Ester Hydrochloride]", "values": [{"measurement": "blocking hyperalgesia to heat", "setting": "Sprague-Dawley rats [1]; 0.1 to 50 mg/kg i.p., capsaicin", "value": "not effective"}, {"measurement": "blocking mechanical hyperalgesia (p<0.05)", "setting": "Sprague-Dawley rats [1]; 10 and 50 mg/kg i.p., capsaicin", "value": "effective"}, {"measurement": "melting point", "value": "158 to 160", "unit": "°C"}]}, {"smiles": "NS(=O)(=O)c1cccc2c3c(cc([N+](=O)[O-])c12)=NC(=O)C(=O)N=3", "note": "[NBQX, 6-nitro-7-sulfamoylbenzoquinoxaline-2,3-dione]", "values": [{"measurement": "affinity for AMPA receptor as compared to kainate receptor", "setting": "[4]", "value": "thirty"}, {"measurement": "binding to glycine site of NMDA receptor", "setting": "[5]", "value": "non-specifically binds"}, {"measurement": "solubility in water", "setting": "[6]", "value": "very limited"}]}]}
